Test results as given in patent US10434186B2, “Functionalized linear ligands and complexes thereof” (LUMIPHORE, INC., priority 2014, dated 2019).
Where a name gives a salt, the structure may show the parent alone. Blank lines part the entries; values can stand above or below the compound they belong to.

Columns and labels:
[1] = Eu(III) complex of the ligand; cited from earlier work
[2] = Molar extinction coefficient from absorption spectrum in 0.1 M TRIS buffer; assay type: physicochemical
Method: This corresponds to 1.218×10^−6 moles of ligand in 50 mL and c=2.436×10^−5 M. A=ϵcl, at λmax, A=0.42853 at 327 nm. […] This corresponds to 2.472×10^−6 moles of ligand in 50 mL and c=4.945×10^−5 M. A=ϵcl; at λmax, A=0.96915 at 315 nm.

[3] = in 0.5 M H2SO4; cited from earlier work

SMILES: O=C(NCCCN(CCCCN(CCCNC(=O)c1cccc(=O)n1O)C(=O)c1cccc(=O)n1O)C(=O)c1cccc(=O)n1O)c1cccc(=O)n1O [3,4,3-LI(1,2-HOPO)]
quantum yield of Eu(III) complex [1]: ~20%

ϵ280/ϵ327 ratio for protein labelling ([2]; 0.1 M TRIS buffer pH 7.4): 3.11 | extinction coefficient ϵ at 327 nm (λmax) ([2]; 0.1 M TRIS buffer pH 7.4, 1 cm cuvette, based on CHN): ~17,595 M^−1 cm^−1 | extinction coefficient at 280 nm ([2]; 0.1 M TRIS buffer pH 7.4, 280 nm): ~5655 M⁻¹ cm⁻¹
SMILES: Cl.NCCOCCNC(=O)C(CCCN(CCCNC(=O)c1cccc(=O)n1O)C(=O)c1cccc(=O)n1O)N(CCCNC(=O)c1cccc(=O)n1O)C(=O)c1cccc(=O)n1O (centres unmarked) [Compound 2-8]

SMILES: C=C[C@H]1C[N@@]2CC[C@H]1C[C@H]2[C@H](O)c1ccnc2ccc(OC)cc12 [Quinine Sulfate]
reference quantum yield Φref [3]: 0.546
